Assay [1] deals with Trypanosoma cruzi. Briefly: 50% inhibitory concentration against the growth of Trypanosoma cruzi (Epimastigotes). The assay is classed as functional, organism-based.
Assay [2] relates to Trypanosoma cruzi. Briefly: 50% inhibitory concentration against the growth of intracellular Trypanosoma cruzi. The assay is classed as functional, organism-based.
Assay [3] concerns Trypanosoma cruzi. The assay can be described thus: 90% inhibitory concentration against the growth of Trypanosoma cruzi (Epimastigotes). In kind it is functional.

The record followed here is ChEMBL document CHEMBL1132935, “Design and synthesis of aryloxyethyl thiocyanate derivatives as potent inhibitors of Trypanosoma cruzi proliferation” (J Med Chem, 2000).

In general, IC50 refers to the concentration needed to halve the response being measured. Read a low IC50 as inhibition by little substance. In general, IC90 refers to the point of the concentration-response curve where the effect stands at 90%. Read a low IC90 as greater potency.

As for `C[C@H](COc1ccc(Oc2ccccc2)cc1)SC#N`, in the assay on Trypanosoma cruzi [1], the IC50 is > 82 µM. Same read-out and setting: the figure for `c1ccc(Oc2ccc(SCCOC3CCCCO3)cc2)cc1` (stereo not drawn) is 291 µM. `C[C@@H](COc1ccc(Oc2ccccc2)cc1)SC#N` gave an IC50 with Trypanosoma cruzi [1] of 25 µM. Consider `Ic1cc(Oc2ccccc2)ccc1OCCOC1CCCCO1` (stereo not drawn), for which the IC50 in the assay on Trypanosoma cruzi [1] was found to be 45 µM. As for `N#CSCCNc1ccc(Oc2ccccc2)cc1`, the IC50 in the assay on Trypanosoma cruzi [1] was found to be 141 µM. For the compound `N#CSCc1ccc(Oc2ccccc2)cc1`, in the assay with Trypanosoma cruzi [1], half-maximal inhibition (IC50) required 18.7 µM. In turn, `N#CSCCOc1ccc(Oc2ccccc2)cc1` registered a concentration for half-maximal inhibition (IC50) in the assay on Trypanosoma cruzi [2] of 16 µM. This compound also yielded an IC90 in the assay with Trypanosoma cruzi [3] of 3.5 µM. As to `CC(=O)N(CCOC1CCCCO1)c1ccc(Oc2ccccc2)cc1` (stereo not drawn), the IC50 in the assay with Trypanosoma cruzi [1] was 211 µM. Same read-out and setting: the figure for `Clc1ccc(OCCOC2CCCCO2)cc1` (stereo not drawn) is > 390 µM; for `N#CSCCOc1ccc(Cl)cc1` it is 14.1 µM. For `N#CSCCOc1cccc(Br)c1`, in the assay on Trypanosoma cruzi [3], the 90% effect level (IC90) was put at 27 µM. Moreover, the IC50 with Trypanosoma cruzi [1] is < 4 µM. Consider `c1ccc(Oc2ccc(COC3CCCCO3)cc2)cc1` (stereo not drawn), for which half-maximal inhibition in the assay on Trypanosoma cruzi [1] (IC50) required 102 µM.

With `Cc1ccccc1Oc1ccc(OCCOC2CCCCO2)cc1` (stereo not drawn), the 50% inhibitory concentration (IC50) with Trypanosoma cruzi [1] came out at 143 µM.

Take `N#CSCCOc1ccc(Oc2ccccc2)cc1Br`: the IC50 in the assay with Trypanosoma cruzi [2] came to 64.5 µM; in the assay on Trypanosoma cruzi [1], 1.4 µM. Moreover, it took 18 µM to reach the 90% level in the assay on Trypanosoma cruzi [3] (IC90). As to `N#CSCCOc1ccc(Oc2ccccc2)cc1I`, the half-maximal inhibitory concentration (IC50) with Trypanosoma cruzi [2] was > 100 µM; in the assay on Trypanosoma cruzi [1] it was 1.8 µM. This compound yielded a concentration for an effect of 90% (IC90) in the assay with Trypanosoma cruzi [3] of 23 µM. `CC(=O)N(CCO)c1ccc(Oc2ccccc2)cc1` displayed a concentration for half-maximal inhibition (IC50) in the assay with Trypanosoma cruzi [1] of 277 µM. For `N#CSCCOc1ccc(Cl)cc1Cl`, the concentration for half-maximal inhibition (IC50) in the assay on Trypanosoma cruzi [2] is > 100 µM; with Trypanosoma cruzi [1], 1 µM. The concentration for an effect of 90% (IC90) in the assay with Trypanosoma cruzi [3] is 30 µM.

In turn, `N#CSCCOc1ccc2oc3ccccc3c(=O)c2c1` showed a half-inhibitory concentration (IC50) with Trypanosoma cruzi [1] of 54 µM.

Turning to `CC(=O)N(CCSC#N)c1ccc(Oc2ccccc2)cc1`, half-maximal inhibition in the assay with Trypanosoma cruzi [1] (IC50) was put at 14.4 µM.

Consider `N#CSCCOc1ccc(Oc2ccccc2)cc1Cl`, for which, in the assay on Trypanosoma cruzi [1], the IC50 is 24.5 µM. The same measure, in the same setting: the figure for `O=c1c2ccccc2oc2ccc(OCCOC3CCCCO3)cc12` (stereo not drawn) is > 60 µM. Consider `Cc1ccccc1Oc1ccc(OCCSC#N)cc1`, for which the IC50 in the assay with Trypanosoma cruzi [2] was determined as 41.7 µM; in the assay with Trypanosoma cruzi [1], 2.7 µM. The compound also had a 90% effect concentration (IC90) in the assay on Trypanosoma cruzi [3] of 3.5 µM. For `N#CSCCOc1ccc(Oc2cccc(Br)c2)cc1`, in the assay on Trypanosoma cruzi [1], the IC50 worked out at 2.9 µM. Same read-out and setting: in the case of `Brc1cccc(Oc2ccc(OCCOC3CCCCO3)cc2)c1` (stereo not drawn) it was 138 µM. Same read-out and setting: in the case of `Cc1cccc(C)c1Oc1ccc(OCCOC2CCCCO2)cc1` (stereo not drawn) it was > 60 µM. For `N#CSCCSc1ccc(Oc2ccccc2)cc1`, the concentration for an effect of 90% (IC90) in the assay on Trypanosoma cruzi [3] stood at 32 µM. In the assay with Trypanosoma cruzi [1], the IC50 came out at 0.87 µM.

For `Brc1cccc(OCCOC2CCCCO2)c1` (stereo not drawn), the half-maximal inhibitory concentration (IC50) with Trypanosoma cruzi [1] was 104 µM.
